Test results as given in US20060083830A1, “Polylysine-containing food additive and acidic adjuvant” (priority 2004, published 2006).
Where “and” joins values, the source holds several entries; their conditions need not be identical. Equal values may be shown once.

Columns and labels:
[1] = tested on: Listeria monocytogenes; assay: L. monocytogenes on cooked ground turkey balls blended with ε-polylysine, with or without 5 second acidic adjuvant spray, incubated at 8° C., CFU determination; assay type: cell-based; details: for Log Reduction: vs control
Description: Four groups of 20 g ground uncooked turkey balls were prepared, with 54 balls prepared per group. […] Groups B-D were blended with varying amounts of ε-polylysine (“ε-PL”). Final concentrations of ε-polylysine within the turkey balls were:
After preparation, all meatballs were placed on baking sheets and baked in a conventional oven at 350° F. for 20 minutes. After baking, the meatballs were packaged separately and stored at 4° C.
The mixture was further diluted 1:5000 times with sterile saline to produce a suspension for use. […] 20 microliters of the Listeria monocytogenes suspension was inoculated onto the exterior of each turkey ball. The turkey balls were incubated at room temperature for 30 min post-inoculation to allow bacteria to attach.
Each group of meatballs (54 per group) was divided into two groups of 27 meatballs and labeled as control or treated meatballs as follows: AC, AT, BC, BT, CC, CT, DC and DT, respectively. Control meatballs labeled AC, BC, CC, and DC were sprayed for 5 seconds with sterile water. Treated meatballs labeled AT, BT, CT and DT were sprayed for 5 seconds with the acidic adjuvant prepared in Example 4 above (Safe2O®brandRTE 01, Mionix Corporation, Rocklin, Calif.) diluted 2 parts water to 1 part solution, having a final pH of about 1.5. After the spray treatment, the meatballs were packaged individually, vacuum sealed and incubated at 8° C.
The microbiological assay was performed after 24 hours, 1 week, 2 weeks, 3 weeks, and 4 weeks. After each designated time period had passed, three bags from each group of meat balls were unpacked, transferred to a stomacher bag along with 20 ml of sterile 0.1% peptone water. Each meatball was hand crushed and stomached at high speed for 2 minutes.

[2] = tested on: many bacteria; details: Shima et al., 1984; Hiraki, 2000; cited from earlier work

poly(imino(2-amino-1-oxo-1,6-hexanediyl)) [ε-PL]
average Log Value ([1]; 1000 ppm ε-PL, after 1 week): 5.38
average of CFU/g ([1]; 1000 ppm ε-PL, after 1 week): 2.41E+05 CFU/g
Log Reduction ([1]; 1000 ppm ε-PL, after 1 week): 2.99
average Log Value ([1]; 1000 ppm ε-PL, after 2 weeks): 4.76
average of CFU/g ([1]; 1000 ppm ε-PL, after 2 weeks): 5.72E+04 CFU/g
Log Reduction ([1]; 1000 ppm ε-PL, after 2 weeks): 4.09
average Log Value ([1]; 1000 ppm ε-PL, after 3 weeks): 5.94
average of CFU/g ([1]; 1000 ppm ε-PL, after 3 weeks): 8.75E+05 CFU/g
average Log Value ([1]; 1000 ppm ε-PL, after 4 weeks): 6.67
average of CFU/g ([1]; 1000 ppm ε-PL, after 4 weeks): 4.64E+06 CFU/g
Log Reduction ([1]; 1000 ppm ε-PL, after 4 weeks): 1.91
average Log Value ([1]; 1000 ppm ε-PL, after 24 hours): 2.22
average of CFU/g ([1]; 1000 ppm ε-PL, after 24 hours): 1.67E+02 CFU/g
Log Reduction ([1]; 1000 ppm ε-PL, after 24 hours): 1.48
average Log Value ([1]; 2000 ppm ε-PL, after 1 week): 1.40
average of CFU/g ([1]; 2000 ppm ε-PL, after 1 week): 2.53E+01 CFU/g
Log Reduction ([1]; 2000 ppm ε-PL, after 1 week): 6.97
average Log Value ([1]; 2000 ppm ε-PL, after 2 weeks): 4.27
average of CFU/g ([1]; 2000 ppm ε-PL, after 2 weeks): 1.88E+04 CFU/g
Log Reduction ([1]; 2000 ppm ε-PL, after 2 weeks): 4.57
average Log Value ([1]; 2000 ppm ε-PL, after 3 weeks): 2.95
average of CFU/g ([1]; 2000 ppm ε-PL, after 3 weeks): 8.96E+02 CFU/g
Log Reduction ([1]; 2000 ppm ε-PL, after 3 weeks): 5.33
average Log Value ([1]; 2000 ppm ε-PL, after 4 weeks): 3.86
average of CFU/g ([1]; 2000 ppm ε-PL, after 4 weeks): 7.18E+03 CFU/g
Log Reduction ([1]; 2000 ppm ε-PL, after 4 weeks): 4.72
average Log Value ([1]; 2000 ppm ε-PL, after 24 hours): 1.36
average of CFU/g ([1]; 2000 ppm ε-PL, after 24 hours): 2.27E+01 CFU/g
Log Reduction ([1]; 2000 ppm ε-PL, after 24 hours): 2.35
average Log Value ([1]; 3000 ppm ε-PL, after 1 week): <0.94
average of CFU/g ([1]; 3000 ppm ε-PL, after 1 week): <8.67E+00 CFU/g
Log Reduction ([1]; 3000 ppm ε-PL, after 1 week): >7.43
average Log Value ([1]; 3000 ppm ε-PL, after 2 weeks): <2.21
average of CFU/g ([1]; 3000 ppm ε-PL, after 2 weeks): <1.61E+02 CFU/g
Log Reduction ([1]; 3000 ppm ε-PL, after 2 weeks): <6.64
CFU/g ([1]; 3000 ppm ε-PL, after 3 weeks): <2.00E+00 CFU/g
average Log Value ([1]; 3000 ppm ε-PL, after 3 weeks): <0.30
average of CFU/g ([1]; 3000 ppm ε-PL, after 3 weeks): <2.00E+00 CFU/g
Log Reduction ([1]; 3000 ppm ε-PL, after 3 weeks): <7.98
average Log Value ([1]; 3000 ppm ε-PL, after 4 weeks): >3.56
average of CFU/g ([1]; 3000 ppm ε-PL, after 4 weeks): >3.61E+03 CFU/g
Log Reduction ([1]; 3000 ppm ε-PL, after 4 weeks): <5.02
CFU/g ([1]; 3000 ppm ε-PL, after 24 hours): 1.40E+01 CFU/g and 1.60E+01 CFU/g and 1.00E+01 CFU/g
average Log Value ([1]; 3000 ppm ε-PL, after 24 hours): 1.12
average of CFU/g ([1]; 3000 ppm ε-PL, after 24 hours): 1.33E+01 CFU/g
Log Reduction ([1]; 3000 ppm ε-PL, after 24 hours): 2.58
controlling the outgrowth of Listeria, ε-PL alone vs secondary acidic adjuvant spray for 5 sec ([1]; Tables 2.1-2.5): more effective in controlling the outgrowth of Listeria than the effect of a secondary spray application of the acidic adjuvant
minimum inhibitory concentration (MIC) for the growth of many bacteria [2]: below 100 μg mL^−1
